Assay [1] addresses α1 Receptor. As to the kind of experiment: α1 receptor binding. Conditions: read-out: α1 Receptor Binding Alpha1 (IC50).
Assay [2] has as its target T1, 5-HT6 (Homo sapiens, UniProt P50406).
T1 construct: host or cells: membrane preparations
As to the kind of experiment: 5-HT6 receptor binding. The conditions noted are these: read-out: Serotonin Receptor Binding 5-HT6 (IC50). The protocol: (§1) Dopamine and serotonin receptor binding assays were performed in a standard manner with the incubation of membrane preparations in an assay buffer in the presence of a known radioactively labeled specific ligand for the receptor subtypes. Nonspecific binding was determined by assessing binding in the presence of excess ligand. Specific binding was measured as the total labeled ligand bound after the nonspecific binding was subtracted. The effect of the tested agents was measured by determining the competition for the receptor binding across a concentration range. Subsequently, an IC50 was determined for the agents tested. More specific details are provided below for several of the assays performed.

Assay [3] addresses T2, 5-HT1D (Homo sapiens, UniProt P28221).
T2 construct: host or cells: membrane preparations
As to the kind of experiment: 5-HT1D receptor binding. Conditions: read-out: Serotonin Receptor Binding 5-HT1D (IC50). As for the experimental part:
as §1

For assay [4], the target named is T3, 5-HT1B (Homo sapiens, UniProt P28222).
T3 construct: host or cells: membrane preparations
T3 sequence (P28222 whole entry, species assumed): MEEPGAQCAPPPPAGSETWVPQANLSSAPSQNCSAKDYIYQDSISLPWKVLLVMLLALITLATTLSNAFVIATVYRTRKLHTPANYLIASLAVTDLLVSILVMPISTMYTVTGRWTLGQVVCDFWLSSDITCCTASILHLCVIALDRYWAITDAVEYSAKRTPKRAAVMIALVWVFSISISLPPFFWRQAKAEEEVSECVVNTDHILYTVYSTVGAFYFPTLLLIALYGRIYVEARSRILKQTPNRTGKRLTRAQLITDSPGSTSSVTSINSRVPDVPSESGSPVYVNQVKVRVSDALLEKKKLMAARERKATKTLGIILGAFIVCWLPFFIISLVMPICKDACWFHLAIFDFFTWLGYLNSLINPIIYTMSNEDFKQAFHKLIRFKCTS
As to the kind of experiment: 5-HT1B receptor binding. Conditions: read-out: Serotonin Receptor Binding 5-HT1B (IC50). As for the experimental part:
as §1

Assay [5] has as its target T4, 5-HT5A (Homo sapiens, UniProt P47898).
T4 construct: host or cells: membrane preparations
As to the kind of experiment: 5-HT5A receptor binding. Conditions: read-out: Serotonin Receptor Binding 5-HT5A (IC50). As for the experimental part:
as §1

In assay [6] the target is T5, 5-HT7 (Homo sapiens, UniProt P34969).
T5 construct: host or cells: membrane preparations
T5 sequence (P34969 whole entry, species assumed): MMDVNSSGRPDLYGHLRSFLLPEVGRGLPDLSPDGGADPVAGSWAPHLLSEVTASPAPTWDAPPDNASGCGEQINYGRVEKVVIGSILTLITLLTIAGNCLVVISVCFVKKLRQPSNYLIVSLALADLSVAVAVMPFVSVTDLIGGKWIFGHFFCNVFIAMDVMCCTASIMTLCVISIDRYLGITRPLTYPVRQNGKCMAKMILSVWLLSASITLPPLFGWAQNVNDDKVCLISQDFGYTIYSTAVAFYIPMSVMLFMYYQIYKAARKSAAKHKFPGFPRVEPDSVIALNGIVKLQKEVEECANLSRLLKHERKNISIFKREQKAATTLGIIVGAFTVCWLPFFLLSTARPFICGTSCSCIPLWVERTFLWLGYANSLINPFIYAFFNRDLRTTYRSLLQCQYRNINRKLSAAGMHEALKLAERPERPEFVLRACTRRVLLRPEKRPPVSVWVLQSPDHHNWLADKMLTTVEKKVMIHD
As to the kind of experiment: 5-HT7 receptor binding. Conditions: read-out: Serotonin Receptor Binding 5-HT7 (IC50). The protocol:
as §1

Assay [7] addresses T6, Human 5-HT2A receptor (Homo sapiens, UniProt P28223).
T6 construct: expressed in transfected cells; host or cells: CHO cells
As to the kind of experiment: 5-HT2A receptor binding. Conditions: [3H]ketanserin, transfected CHO cell membranes; read-out: Serotonin Receptor Binding 5-HT2A (IC50). As for the experimental part: as §1
Aliquots of transfected CHO cell membrane preparations corresponding to 20-50 μg protein are incubated for 15 min at 37° C. in 250 μl of 50 mM Tris-HCl buffer (pH 7.4) containing 2 nM [^3H]ketanserin and increasing concentrations of the competing drugs. Nonspecific binding is determined in the presence of 1 μM ketanserin. After incubation, the samples are filtered rapidly under vacuum through glass fiber filters (GF/B, Packard) and rinsed several times with ice-cold 50 mM Tris-HCl using a cell harvester (Packard). Bound radioactivity is measured with a scintillation counter (Topcount, Packard) using a liquid scintillation cocktail (Microscint 0, Packard).
The reference compound for this assay is ketanserin.

Assay [8] concerns the target T7, Human D2 receptor (Homo sapiens, UniProt P14416).
T7 construct: expressed in transfected cells; host or cells: A9L cells
As to the kind of experiment: Dopamine D2 receptor binding. Conditions: [3H]spiperone, transfected A9L cell membranes. As for the experimental part:
as §1
(§2) Aliquots of transfected A9L cell membrane preparations corresponding to 20-40 μg protein are incubated for 60 min at 22° C. in 250 μl of 50 mM Tris-HCl buffer (pH 7.4) containing 120 mM NaCl, 5 mM KCl, 5 mM MgCl2, 1 mM EDTA, 0.3 nM [^3H]spiperone and increasing concentrations of the competing drugs. Nonspecific binding is determined in the presence of 10 μM (+)butaclamol. After incubation, the samples are filtered rapidly under vacuum through glass fiber filters (GF/B, Packard) and rinsed several times with ice-cold 50 mM Tris-HCl using a cell harvester (Packard). Bound radioactivity is measured with a scintillation counter (Topcount, Packard) using a liquid scintillation cocktail (Microscint 0, Packard). The reference compound for this assay is (+)butaclamol.

The target of assay [9] is T8, Human D4.4 receptor (Homo sapiens, UniProt P21917).
T8 construct: expressed in transfected cells; host or cells: CHO cells
T8 sequence (P21917 1-419): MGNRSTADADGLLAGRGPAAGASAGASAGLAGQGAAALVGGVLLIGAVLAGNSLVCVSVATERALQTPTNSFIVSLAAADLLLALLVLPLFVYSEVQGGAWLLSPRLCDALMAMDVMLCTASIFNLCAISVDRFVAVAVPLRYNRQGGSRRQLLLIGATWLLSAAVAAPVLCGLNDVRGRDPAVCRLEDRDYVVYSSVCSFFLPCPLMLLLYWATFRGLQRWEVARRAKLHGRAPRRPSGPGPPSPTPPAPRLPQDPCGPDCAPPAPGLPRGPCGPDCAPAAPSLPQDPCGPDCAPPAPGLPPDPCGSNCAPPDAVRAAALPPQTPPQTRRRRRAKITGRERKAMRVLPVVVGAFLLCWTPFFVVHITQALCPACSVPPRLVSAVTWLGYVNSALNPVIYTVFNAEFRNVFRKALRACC
As to the kind of experiment: Dopamine D4 receptor binding (head prints D). The conditions noted are these: head prints only D. The protocol: as §1
as §2, with “transfected CHO” for “transfected A9L”, “to 100” for “to 20-40”, “is clozapine.” for “is (+)butaclamol.”

Assay [10] has as its target T9, 5-HT2B (Homo sapiens, UniProt P41595).
T9 construct: host or cells: membrane preparations
As to the kind of experiment: 5-HT2B receptor binding. The conditions noted are these: read-out: Serotonin Receptor Binding 5-HT2B (IC50). The protocol:
as §1

In assay [11] the target is T10, serotonin uptake by rat cortex synaptosomes (Rattus norvegicus, UniProt P31652).
T10 construct: from tissue; host or cells: male Wistar rat cortex synaptosomes
T10 sequence (P31652 whole entry): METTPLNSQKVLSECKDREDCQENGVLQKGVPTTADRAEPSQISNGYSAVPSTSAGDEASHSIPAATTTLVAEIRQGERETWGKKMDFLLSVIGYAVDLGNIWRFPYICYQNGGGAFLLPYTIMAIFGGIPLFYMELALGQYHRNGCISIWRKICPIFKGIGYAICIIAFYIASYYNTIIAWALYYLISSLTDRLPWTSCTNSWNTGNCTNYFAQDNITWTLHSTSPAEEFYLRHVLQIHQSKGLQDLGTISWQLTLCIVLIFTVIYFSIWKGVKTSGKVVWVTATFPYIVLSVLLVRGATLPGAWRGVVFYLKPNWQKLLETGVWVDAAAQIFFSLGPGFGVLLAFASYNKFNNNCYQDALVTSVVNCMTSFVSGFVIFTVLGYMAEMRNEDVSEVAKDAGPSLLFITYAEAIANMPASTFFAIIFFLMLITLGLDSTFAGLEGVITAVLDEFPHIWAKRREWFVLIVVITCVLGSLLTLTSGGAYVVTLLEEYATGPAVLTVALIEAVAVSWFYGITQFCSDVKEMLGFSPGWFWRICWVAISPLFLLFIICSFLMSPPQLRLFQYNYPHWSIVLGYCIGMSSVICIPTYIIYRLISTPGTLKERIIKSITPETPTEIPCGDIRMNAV
As to the kind of experiment: Serotonin uptake functional assay. The class given is biochemical. The conditions noted are these: [3H]5-hydroxytryptamin, read-out: Monoamine Neuronal Transport 5-HT Uptake (IC50). The protocol:
Serotonin uptake functional assay
Characterization of serotonin uptake is performed using synaptosomes isolated in a 0.32 M sucrose buffer from a male Wistar rat cortex. The uptake of radiolabelled serotonin by synaptosomes (100 μg of proteins/point) is allowed by incubating them for 15 minutes at 37° C. in presence of test compounds and [3H]5-hydroxytryptamin (0.1 μCi/point). The experiment is performed in a deep well.
Synaptosomes and [3H]5-hydroxytryptamin are prepared in a Krebs buffer pH 7.4 containing 25 mM NaHCO3, 11 mM glucose and 50 μM ascorbic acid. This incubation buffer is oxygenated during 5 minutes before incubation. Basal control is incubated for 15 minutes at 4° C. in order to avoid any uptake. Following this incubation the uptake is stopped by filtration through an “unifilter 96-wells GF”Packard plate washed with Krebs buffer containing 25 mM NaHCO3 in order to eliminate the free [3H]5-hydroxytryptamin. The radioactivity associated to the synaptosomes retained onto the unifilter corresponding to the uptake is then measured with a microplate scintillation counter Topcount, Packard using a scintillation liquid microscint 0, Packard.
[See Perovics and Müiller “Pharmacological profile of hypericum extract: effect on serotonin uptake by postsynaptic receptors”, Arzeim Forsch/Drug Res. 45 1145-1148 (1995).]

The term IC50 denotes the concentration at which inhibition is half-maximal.

T7 sequence (P14416 whole entry): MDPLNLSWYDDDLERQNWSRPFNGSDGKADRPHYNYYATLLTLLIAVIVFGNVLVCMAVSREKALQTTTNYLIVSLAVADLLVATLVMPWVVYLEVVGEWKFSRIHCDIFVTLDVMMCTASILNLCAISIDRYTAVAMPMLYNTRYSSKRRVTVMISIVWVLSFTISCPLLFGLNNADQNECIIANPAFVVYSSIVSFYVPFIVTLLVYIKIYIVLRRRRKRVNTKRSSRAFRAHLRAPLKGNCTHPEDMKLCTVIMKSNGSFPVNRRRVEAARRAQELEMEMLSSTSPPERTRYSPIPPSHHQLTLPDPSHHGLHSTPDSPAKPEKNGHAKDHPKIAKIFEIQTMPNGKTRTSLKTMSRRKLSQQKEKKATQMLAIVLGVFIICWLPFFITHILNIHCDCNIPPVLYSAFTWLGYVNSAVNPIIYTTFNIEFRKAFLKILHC
T1 sequence (P50406 whole entry, species assumed): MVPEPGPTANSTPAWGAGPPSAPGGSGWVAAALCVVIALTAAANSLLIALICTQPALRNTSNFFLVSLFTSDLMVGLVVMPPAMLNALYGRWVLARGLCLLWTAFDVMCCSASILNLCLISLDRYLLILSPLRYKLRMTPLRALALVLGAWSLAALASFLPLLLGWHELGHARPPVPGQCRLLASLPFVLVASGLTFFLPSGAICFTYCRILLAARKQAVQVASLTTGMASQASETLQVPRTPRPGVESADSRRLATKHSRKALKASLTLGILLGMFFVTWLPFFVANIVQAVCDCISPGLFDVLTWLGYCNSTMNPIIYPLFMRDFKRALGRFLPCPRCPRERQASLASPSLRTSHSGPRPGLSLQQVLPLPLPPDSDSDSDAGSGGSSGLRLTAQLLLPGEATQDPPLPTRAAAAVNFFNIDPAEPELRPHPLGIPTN
T2 sequence (P28221 whole entry, species assumed): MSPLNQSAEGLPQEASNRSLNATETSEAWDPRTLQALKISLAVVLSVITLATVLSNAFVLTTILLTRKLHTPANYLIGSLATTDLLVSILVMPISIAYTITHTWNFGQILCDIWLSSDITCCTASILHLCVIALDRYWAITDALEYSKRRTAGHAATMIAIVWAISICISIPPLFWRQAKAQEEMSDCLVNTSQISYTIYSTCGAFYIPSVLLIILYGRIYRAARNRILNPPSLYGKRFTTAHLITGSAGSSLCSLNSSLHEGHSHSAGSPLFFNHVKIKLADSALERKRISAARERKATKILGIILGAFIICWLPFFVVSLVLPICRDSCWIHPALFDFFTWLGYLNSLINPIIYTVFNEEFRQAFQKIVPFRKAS
T4 sequence (P47898 whole entry, species assumed): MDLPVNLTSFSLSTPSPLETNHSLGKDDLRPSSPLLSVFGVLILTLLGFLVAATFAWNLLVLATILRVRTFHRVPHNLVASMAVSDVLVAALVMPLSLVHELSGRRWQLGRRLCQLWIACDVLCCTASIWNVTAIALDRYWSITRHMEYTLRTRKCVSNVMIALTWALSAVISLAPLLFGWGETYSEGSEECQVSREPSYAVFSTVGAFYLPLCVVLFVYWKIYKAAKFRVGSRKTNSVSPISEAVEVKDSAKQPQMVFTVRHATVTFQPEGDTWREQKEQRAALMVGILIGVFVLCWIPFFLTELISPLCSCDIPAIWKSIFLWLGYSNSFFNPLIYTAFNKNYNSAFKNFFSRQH
T6 sequence (P28223 whole entry): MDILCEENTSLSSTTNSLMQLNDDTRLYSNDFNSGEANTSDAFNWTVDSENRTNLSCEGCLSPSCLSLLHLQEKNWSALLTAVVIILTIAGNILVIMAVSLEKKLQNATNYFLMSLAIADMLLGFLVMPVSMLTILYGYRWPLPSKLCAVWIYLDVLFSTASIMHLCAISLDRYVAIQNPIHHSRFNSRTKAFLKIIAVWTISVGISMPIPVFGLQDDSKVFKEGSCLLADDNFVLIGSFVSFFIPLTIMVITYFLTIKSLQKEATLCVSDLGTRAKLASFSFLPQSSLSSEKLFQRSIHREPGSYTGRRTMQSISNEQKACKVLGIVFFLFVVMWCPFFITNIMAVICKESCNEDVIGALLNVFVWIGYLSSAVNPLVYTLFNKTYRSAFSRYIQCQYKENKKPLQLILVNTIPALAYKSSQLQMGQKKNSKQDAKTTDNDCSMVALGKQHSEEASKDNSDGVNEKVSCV
T9 sequence (P41595 whole entry, species assumed): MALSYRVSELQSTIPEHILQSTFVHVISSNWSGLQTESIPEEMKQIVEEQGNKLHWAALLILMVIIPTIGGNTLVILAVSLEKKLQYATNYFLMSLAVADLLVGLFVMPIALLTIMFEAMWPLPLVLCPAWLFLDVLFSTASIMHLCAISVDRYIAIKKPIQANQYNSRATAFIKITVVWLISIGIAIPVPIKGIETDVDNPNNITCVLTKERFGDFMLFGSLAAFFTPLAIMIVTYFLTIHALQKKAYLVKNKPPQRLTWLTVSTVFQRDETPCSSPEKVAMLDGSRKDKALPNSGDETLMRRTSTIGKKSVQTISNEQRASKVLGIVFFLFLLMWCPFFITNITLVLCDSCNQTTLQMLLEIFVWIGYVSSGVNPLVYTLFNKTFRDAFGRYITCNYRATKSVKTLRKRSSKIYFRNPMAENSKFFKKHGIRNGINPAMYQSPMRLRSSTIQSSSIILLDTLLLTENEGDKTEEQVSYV

Regarding `CC(O)c1nn(CCCN2CCN(c3cccc(Cl)c3)CC2)c(=O)n1CCOc1ccccc1` (racemic) [(RS)-OH, 2-[3-[4-(3-chlorophenyl)1-piperazinyl]propyl]-5-(1-hydroxyethyl)-2,4-dihydro-4-(phenoxyethyl)-3H-1,2,4-triazol-3-one, reference compound], the IC50 worked out at 381 nM in [1]; 856 nM in assay [2]; 1150 nM in [3]; 4550 nM in assay [4]; 2230 nM in assay [5]; 61 nM in assay [6]. Further, the IC50 in assay [7] was 20 nM; in [8] it was 1420 nM; in assay [9], 1310 nM; in [10], 34 nM; in assay [11] it was 500 nM.

`C[C@@H](O)c1nn(CCCN2CCN(c3cccc(Cl)c3)CC2)c(=O)n1CCOc1ccccc1` [(R)-OH, (R)-hydroxynefazodone]: the IC50 came out at 367 nM in assay [1]; 1020 nM in assay [2]; 1990 nM in assay [3]; 3610 nM in assay [4]; 2040 nM in assay [5]; 71 nM in assay [6]. In addition, the IC50 in assay [7] came out at 22 nM; in [8] it was 1690 nM; in assay [9], 1910 nM; in assay [10], 28 nM; in [11], 640 nM.

With `C[C@H](O)c1nn(CCCN2CCN(c3cccc(Cl)c3)CC2)c(=O)n1CCOc1ccccc1` [(S)-OH, (S)-2-{3-[4-(3-Chlorophenyl)-1-piperazinyl]propyl}-4-(2-phenoxyethyl)-5-[1-(hydroxy)-ethyl]-2,4-dihydro-[1,2,4]triazol-3-one], the IC50 in [1] turned out to be 419 nM; in assay [2], 489 nM; in assay [3], 234 nM; in [4], 2840 nM; in assay [5] it was 1970 nM; in [6], 60 nM. Moreover, the IC50 turned out to be 18 nM in assay [7]; 788 nM in assay [8]; 994 nM in assay [9]; 41 nM in assay [10]; 790 nM in assay [11].

The values are drawn from US6469008B2, “(R)-hydroxynefazodone antipsychotic therapy” (Sepracor Inc., priority 1999, dated 2002).
